From patent US7488748B2, “3,6-Disubstituted azabicyclo hexane derivatives as muscarinic receptor antagonists” (Ranbaxy Laboratories Limited, priority 2003, dated 2009)

Assays:
M3 muscarinic receptor = target: T1, M3 muscarinic receptor (Rattus norvegicus, UniProt P08483); experiment: Radioligand binding assay, [3H]-N-methylscopolamine, rat submandibular gland membranes; conditions: [3H]NMS, Ki by Cheng & Prusoff; for Ki: read-out: Receptor Binding Assay pKi M3 (converted)
T1 construct: from tissue; host or cells: rat submandibular gland membrane homogenate
T1 sequence (P08483 whole entry): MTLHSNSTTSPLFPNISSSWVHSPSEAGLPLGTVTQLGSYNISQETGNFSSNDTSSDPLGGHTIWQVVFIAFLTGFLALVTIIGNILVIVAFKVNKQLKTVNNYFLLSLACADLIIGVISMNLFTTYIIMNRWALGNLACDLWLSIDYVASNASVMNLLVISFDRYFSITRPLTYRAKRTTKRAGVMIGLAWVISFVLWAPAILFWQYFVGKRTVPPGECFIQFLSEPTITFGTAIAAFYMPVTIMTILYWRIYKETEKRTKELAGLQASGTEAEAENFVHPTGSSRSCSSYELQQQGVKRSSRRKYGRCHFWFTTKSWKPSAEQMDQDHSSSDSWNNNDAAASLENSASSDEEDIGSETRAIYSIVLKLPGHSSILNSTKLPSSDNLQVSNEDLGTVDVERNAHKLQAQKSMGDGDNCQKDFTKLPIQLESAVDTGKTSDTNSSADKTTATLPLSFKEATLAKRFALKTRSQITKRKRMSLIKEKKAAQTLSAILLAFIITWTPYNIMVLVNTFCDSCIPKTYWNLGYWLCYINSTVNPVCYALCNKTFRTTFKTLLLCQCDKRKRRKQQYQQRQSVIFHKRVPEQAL
Experimental: (§1) The affinity of test compounds for M2 and M3 muscarinic receptor subtypes was determined by [^3H]—N-methylscopolamine binding studies using rat heart and submandibular gland respectively as described by Moriya et al., (Life Sci., 1999,64(25):2351-2358) with minor modifications.
(§2) Membrane preparation: Submandibular glands and heart were isolated and placed in ice cold homogenizing buffer (HEPES 20 mM, 10 mM EDTA, pH 7.4) immediately after sacrifice. The tissues were homogenized in 10 volumes of homogenizing buffer and the homogenate was filtered through two layers of wet gauze and filtrate was centrifuged at 500 g for 10 min. The supernatant was subsequently centrifuged at 40,000 g for 20 min. The pellet thus obtained was resuspended in same volume of assay buffer (HEPES 20 mM, EDTA 5 mM, pH 7.4) and were stored at −70° C. until the time of assay.
(§3) Ligand binding assay The compounds were dissolved and diluted in DMSO. The membrane homogenates (150-250 μg protein) were incubated in 250 μl of assay buffer (HEPES 20 mM, pH 7.4) at 24-25° C. for 3 h. Non-specific binding was determined in the-presence of 1 μM atropine. The incubation was terminated by vacuum filtration over GF/B fiber filters(Wallac). The filters were then washed with ice cold 50 mM Tris HCl buffer (pH 7.4). The filter mats were dried and bound radioactivity retained on filters was counted. The IC50 & Kd were estimated by using the non-linear curve fitting program using G Pad Prism software. The value of inhibition constant Ki was calculated from competitive binding studies by using Cheng & Prusoff equation (Biochem Pharmacol, 1973,22: 3099-3108), Ki=IC50/(1+L/Kd), where L is the concentration of [^3H]NMS used in the particular experiment.

M2 muscarinic receptor = target: T2, M2 muscarinic receptor (Rattus norvegicus, UniProt P10980); experiment: Radioligand binding assay, [3H]-N-methylscopolamine, rat heart membranes; conditions: [3H]NMS, Ki by Cheng & Prusoff; for Ki: read-out: Receptor Binding Assay pKi M2 (converted)
T2 construct: from tissue; host or cells: rat heart membrane homogenate
T2 sequence (P10980 1-466): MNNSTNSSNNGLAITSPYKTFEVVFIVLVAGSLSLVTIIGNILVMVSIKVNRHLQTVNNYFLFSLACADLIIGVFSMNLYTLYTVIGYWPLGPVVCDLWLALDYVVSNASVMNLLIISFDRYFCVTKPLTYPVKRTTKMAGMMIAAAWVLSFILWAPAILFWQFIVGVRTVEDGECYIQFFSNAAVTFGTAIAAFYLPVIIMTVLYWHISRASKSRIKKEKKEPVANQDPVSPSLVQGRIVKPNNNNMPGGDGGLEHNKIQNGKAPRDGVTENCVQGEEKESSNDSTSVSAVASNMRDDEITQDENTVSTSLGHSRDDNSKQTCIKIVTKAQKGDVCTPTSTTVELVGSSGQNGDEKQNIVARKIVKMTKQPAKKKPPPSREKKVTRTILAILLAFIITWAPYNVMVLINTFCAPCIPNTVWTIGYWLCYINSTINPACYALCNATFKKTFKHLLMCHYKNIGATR
Experimental: as §1, §2, §3

isolated rat bladder = experiment: Functional experiments using isolated rat bladder (carbachol-induced contraction); conditions: isolated rat bladder strips, carbachol concentration response curve, antagonist added 20 min prior
Experimental: Functional Experiments Using Isolated Rat Bladder:
Animals were euthanized by overdose of urethane and whole bladder was isolated and removed rapidly and placed in ice cold Tyrode buffer with the following composition (mMol/L) NaCl 137; KCl 2.7; CaCl2 1.8; MgCl2 0.1; NaHCO3 11.9; NaH2PO4 0.4; Glucose 5:55 and continuously gassed with 95% O2 and 5% CO2.
The bladder was cut into longitudinal strips (3 mm wide and 5-6 mm long) and mounted in 10 ml organ baths at 30° C., with one end connected to the base of the tissue holder and the other end connected to a polygraph through a force displacement transducer. Each tissue was maintained at a constant basal tension of 2 g and allowed to equilibrate for 1 hour during which the PSS was changed every 15 min. At the end of equilibration period the stabilization of the tissue contractile response was assessed with 1 μmol/L of Carbachol consecutively for 2-3 times. Subsequently a cumulative concentration response curve to carbachol (10-9 mol/L to 3×10^−5 mol/L) was obtained. After several washes, once the baseline was achieved, cumulative concentration response curve was obtained in presence of NCE (NCE added 20 min. prior to the second CRC).
The contractile results were expressed as % of control E max. ED50 values were calculated by fitting a non-linear regression curve (Graph Pad Prism). PKB values were calculated by the formula pKB=−log [(molar concentration of antagonist/(dose ratio−1))]
dose ratio=ED50 in the presence of antagonist/ED50 in the absence of antagonist.

Structure (SMILES)	Ki (M3 muscarinic receptor)	Ki (M2 muscarinic receptor)	Functional Assay pKB (isolated rat bladder)	Receptor Binding Assay pKi M3 (M3 muscarinic receptor)	Receptor Binding Assay pKi M2 (M2 muscarinic receptor)
O=C(NC1C2CN(Cc3cccs3)CC21)C(O)(c1ccccc1)C1CCCCC1 (stereo not drawn) [Compound No. 2, (1α, 5α, 6α)-N-[3-(2-Thienylmethyl)-3-azabicyclo[3.1.0]hex-6-yl]-2-hydroxy-2-cyclohexyl-2-phenylacetamide]	129 nM	3160 nM	7.52	–	–
O=C(NC1C2CN(Cc3cccs3)CC21)C(O)(c1ccccc1)C1CCCC1 (stereo not drawn) [Compound No. 3, (1α, 5α, 6α)-N-[3-(2-thienylmethyl)-3-azabicyclo[3.1.0]hex-6-yl]-2-hydroxy-2-cyclopentyl-2-phenylacetamide]	525 nM	3980 nM	8.04	–	–
O=C(NC1C2CN(CCc3ccc(Cl)cc3)CC21)C(O)(c1ccccc1)C1CCCC1 (stereo not drawn) [Compound No. 17, (1α, 5α, 6α)-N-[3-(4-chlorophenethyl)-3-azabicyclo[3.1.0]hex-6-yl]-2-hydroxy-2-cyclopentyl-2-phenylacetamide]	79.4 nM	501 nM	7.02	–	–
O=C(NC1C2CN(CCCc3ccccc3)CC21)C(O)(c1ccccc1)C1CCCC1 (stereo not drawn) [Compound No. 19, (1α, 5α, 6α)-N-[3-(3-phenylpropyl)-3-azabicyclo[3.1.0]hex-6-yl]-2-hydroxy-2-cyclopentyl-2-phenylacetamide]	776 nM	2630 nM	7.52	–	–
CC(c1ccccc1)N1CC2C(C1)C2NC(=O)C(O)(c1ccccc1)C1CCCC1 (stereo not drawn) [Compound No. 21, (1α, 5α, 6α)-N-[3-(1-phenylethyl)-3-azabicyclo[3.1.0]hex-6-yl]-2-hydroxy-2-cyclopentyl-2-phenylacetamide]	25.1 nM	631 nM	8.2	–	–
Cc1ccc(C(C)N2CC3C(C2)C3NC(=O)C(O)(c2ccccc2)C2CCCC2)cc1 (stereo not drawn) [Compound No. 43, (1α, 5α, 6α)-N-[3-[1-(4-methylphenyl)ethyl]-3-azabicyclo[3.1.0]hex-6-yl]-2-hydroxy-2-cyclopentyl-2-phenylacetamide]	58.9 nM	1230 nM	6.86	–	–
Cc1ccc(CCN2CC3C(C2)C3NC(=O)C(O)(c2ccccc2)C2CCCC2)cc1C (stereo not drawn) [Compound No. 50]	43.7 nM	813 nM	7.48	–	–
CC(c1ccccc1)N1CC2C(C1)C2NC(=O)C(O)(c1ccccc1)C1CCCCC1 (stereo not drawn) [Compound No. 58, (1α, 5α, 6α)-N-[3-[1-(phenyl)ethyl]-3-azabicyclo [3.1.0]hex-6-yl]-2-hydroxy-2-cyclohexyl-2-phenylacetamide]	5.89 nM	155 nM	7.89	–	–
COC(=O)c1ccc(CCN2CC3C(C2)C3NC(=O)C(O)(c2ccccc2)C2CCCC2)cc1 (stereo not drawn) [Compound No. 66, (1α, 5α, 6α)-N-[3-(2-(4-methoxycarbonyl)phenyl)ethyl-3-azabicyclo[3.1.0]hex-6-yl]-2-hydroxy-2-cyclopentyl-2-phenylacetamide]	43.7 nM	537 nM	7.67	–	–
O=C(N[C@H]1[C@@H]2CN(CCc3ccc(CO)cc3)C[C@@H]21)C(O)(c1ccccc1)C1CCCC1 (stereo partly drawn) [Compound No. 71, (1α, 5α, 6α)-N-[3-(4-hydroxymethylphenethyl)-3-azabicyclo [3.1.0]-hex-6-yl]-2-hydroxy-2-cyclopentyl-2-phenylacetamide]	–	–	6.8	7.37 -log M (pKi, unitless)	6.01
CC(c1ccccc1)N1C[C@@H]2[C@H](C1)[C@H]2NC(=O)C(O)(c1ccccc1)C1CCCCCC1 (stereo partly drawn) [Compound No. 81, (1α, 5α, 6α)-N-[3-(1-phenylethyl)-3-azabicyclo[3.1.0]-hex-6-yl]-2-hydroxy-2-cycloheptyl-2-phenylacetamide]	–	–	7.89	8.62 -log M (pKi, unitless)	7.27
O=C(NC1C2CN(Cc3ccccc3)CC21)C(Cl)(c1ccccc1)C1CCCCC1 (stereo not drawn) [Compound No. 115, (1α, 5α, 6α)-N-[3-benzyl-3-azabicyclo[3.1.0]-hex-6-yl]-2-chloro-2-cyclohexyl-2-phenylacetamide]	> 1000 nM	> 1000 nM	5.45	–	–
O=C(NC1C2CN(Cc3ccccc3)CC21)C(c1ccccc1)C1CCCCC1 (stereo not drawn) [Compound No. 116, (1α, 5α, 6α)-N-[3-benzyl-3-azabicyclo[3.1.0]-hex-6-yl]-2-cyclohexyl-1-2-phenylacetamide]	> 1000 nM	> 1000 nM	6.03	–	–
O=C(NC1C2CN(Cc3ccccc3)CC21)C(O)c1ccccc1 (stereo not drawn) [Compound No. 117, (1α, 5α, 6α)-N-[3-benzyl-3-azabicyclo[3.1.0]-hex-6-yl]-2-hydroxy-2-phenylacetamide]	> 1000 nM	> 1000 nM	5.08	–	–
CC(C)=CCCN1CC2C(C1)C2N(C)C(=O)C(O)(c1ccccc1)C1CCCC1 (stereo not drawn) [Compound No. 125, N-methyl-N-(1α, 5α, 6α)-N-[3-(4-methyl-3-pentenyl)-3-azabicyclo[3.1.0]-hex-6-yl]-2-cyclopentyl-2-hydroxy-2-phenylacetamide]	26.3 nM	24.5 nM	8.36	–	–
